Reference: US9302999B2, “Substituted triazoles as herbicides” (E. I. DU PONT DE NEMOURS AND COMPANY, priority 2012, dated 2016)

Legend:
Format in all cases: in vivo
[1] = system: corn (Zea mays); experiment: Test A pre-/postemergence: corn
Method in brief: (§1)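 Pre: directed soil spray after planting in loam + sand. Post: same formulation (non-phytotoxic solvent + surfactant) on 1–2-leaf plants, 2–10 cm. Greenhouse ~10 d; visual injury 0–100 vs untreated.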

[2] = system: kochia (Kochia scoparia); experiment: Test C pre-/postemergence: kochia; details: Postemergence
Method in brief: (§2)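 Visual injury scored 0–100 (100 = complete control) against untreated controls after 13–15 greenhouse days. Surfactant-containing solvent formulations applied either to soil after sowing (loam/sand) or over 1- to 4-leaf plants, 2–18 cm tall.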

[3] = system: johnsongrass (Sorghum halepense); experiment: Test C pre-/postemergence: johnsongrass
Method in brief: as §2

[4] = system: ragweed (common ragweed, Ambrosia elation); experiment: Test C pre-/postemergence: ragweed
Method in brief: as §2

[5] = system: lambsquarters (Chenopodium album); experiment: Test C pre-/postemergence: lambsquarters
Method in brief: as §2

[6] = system: rice (Oryza sativa); experiment: Test B flooded paddy: rice; details: Flood; 250 g ai/ha; applied to paddy water at 2-leaf stage; visually evaluated after 13 to 15 days
Method in brief: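 Two-leaf-stage plants, pots flooded (3 cm above soil) and treated through the water, which stayed at that depth. After 13–15 days in greenhouse conditions, visual assessment versus controls: 0 is no effect, 100 complete control, dash means no result.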

[7] = system: galium (catchweed bedstraw, Galium aparine); experiment: Test C pre-/postemergence: galium
Method in brief: as §2

[8] = system: morningglory (Ipomoea spp.); experiment: Test A pre-/postemergence: morningglory
Method in brief: as §1

[9] = system: barnyardgrass (Echinochloa crus-galli); experiment: Test A pre-/postemergence: barnyardgrass
Method in brief: as §1

[10] = system: velvetleaf (Abutilon theophrasti); experiment: Test C pre-/postemergence: velvetleaf
Method in brief: as §2

[11] = Postemergence, 125 g ai/ha, 0 to 100 scale, 0 is no effect, 100 is complete control
[12] = Postemergence, 500 g ai/ha, 0 to 100 scale, 0 is no effect, 100 is complete control
[13] = Preemergence, 125 g ai/ha, 0 to 100 scale where 0 is no effect and 100 is complete control
[14] = Preemergence, 500 g ai/ha, 0 to 100 scale (0 no effect, 100 complete control)
[15] = 31 g ai/ha, scale 0 to 100 (0 no effect, 100 complete control)
[16] = 62 g ai/ha, scale 0 to 100 (0 no effect, 100 complete control)
[17] = 125 g ai/ha, scale 0 to 100, 0 no effect, 100 complete control
[18] = 250 g ai/ha, scale 0 to 100 (0 no effect, 100 complete control)
[19] = Postemergence, 31 g ai/ha, scale 0 to 100 (0 no effect, 100 complete control)
[20] = Postemergence, 62 g ai/ha, scale 0 to 100 (0 no effect, 100 complete control)
[21] = Postemergence, 125 g ai/ha, scale 0 to 100, 0 no effect, 100 complete control
[22] = Postemergence, 250 g ai/ha, scale 0 to 100 (0 no effect, 100 complete control)
[23] = Preemergence, 31 g ai/ha, scale 0 (no effect) to 100 (complete control)
[24] = Preemergence, 62 g ai/ha, scale of 0 to 100, 0 is no effect, 100 is complete control
[25] = Preemergence, 125 g ai/ha, scale 0 to 100, 0 no effect, 100 complete control
[26] = Preemergence, 250 g ai/ha, scale 0 to 100, 0 no effect, 100 complete control

CCc1nn(-c2ccc(C(F)(F)F)cc2)nc1Oc1ccnc(C(F)(F)F)c1 [Compound 169]
Plant response rating, Corn [1, 11]: 10 | Corn plant response rating [1, 12]: 50 | Plant response rating, Corn [1, 13]: 20 | Plant response rating, Corn [1, 14]: 20 | Plant response rating, Kochia [2, 15]: 85 | Plant response rating, Kochia [2, 16]: 90 | Plant response rating, Kochia [2, 17]: 90 | Plant response rating, Kochia [2, 18]: 90 | Plant response rating, Johnsongrass [3, 19]: 15 | Plant response rating, Johnsongrass [3, 20]: 30 | Plant response rating, Johnsongrass [3, 21]: 35 | Plant response rating, Johnsongrass [3, 22]: 50 | Plant response rating, Johnsongrass [3, 23]: 20 | Plant response rating, Johnsongrass [3, 24]: 75 | Plant response rating, Johnsongrass [3, 25]: 95 | Plant response rating, Johnsongrass [3, 26]: 98 | Plant response rating, Ragweed [4, 19]: 40 | Plant response rating, Ragweed [4, 20]: 60 | Plant response rating, Ragweed [4, 21]: 85 | Plant response rating, Ragweed [4, 22]: 95 | Plant response rating, Ragweed [4, 23]: 15 | Plant response rating, Ragweed [4, 24]: 15 | Plant response rating, Ragweed [4, 25]: 30 | Plant response rating, Ragweed [4, 26]: 65 | Plant response rating, Lambsquarters [5, 19]: 90 | Plant response rating, Lambsquarters [5, 20]: 90 | Plant response rating, Lambsquarters [5, 21]: 98 | Plant response rating, Lambsquarters [5, 22]: 98 | Plant response rating, Lambsquarters [5, 23]: 90 | Plant response rating, Lambsquarters [5, 24]: 90 | Plant response rating, Lambsquarters [5, 25]: 90 | Plant response rating, Lambsquarters [5, 26]: 90 | Plant response rating, Rice (0 to 100 scale, 0 is no effect, 100 is complete control) [6]: 55 | Plant response rating, Galium [7, 19]: 80 | Plant response rating, Galium [7, 20]: 90 | Plant response rating, Galium [7, 21]: 90 | Plant response rating, Galium [7, 22]: 95 | Plant response rating, Galium [7, 23]: 100 | Plant response rating, Galium [7, 24]: 100 | Plant response rating, Galium [7, 25]: 100 | Plant response rating, Galium [7, 26]: 100 | Plant response rating, Morningglory [8, 13]: 20 | Plant response rating, Morningglory [8, 14]: 40 | Plant response rating, Barnyardgrass [9, 11]: 80 | Barnyardgrass plant response rating [9, 12]: 90 | Plant response rating, Barnyardgrass [9, 13]: 80 | Plant response rating, Barnyardgrass [9, 14]: 90 | Plant response rating, Velvetleaf [10, 19]: 50 | Plant response rating, Velvetleaf [10, 20]: 65 | Plant response rating, Velvetleaf [10, 21]: 75 | Plant response rating, Velvetleaf [10, 22]: 80 | Plant response rating, Velvetleaf [10, 23]: 50 | Plant response rating, Velvetleaf [10, 24]: 75 | Plant response rating, Velvetleaf [10, 25]: 75 | Plant response rating, Velvetleaf [10, 26]: 100

CCCc1nn(-c2ccc(C(F)(F)F)cc2)nc1Oc1ccnc(C(F)(F)F)c1 [Compound 170]
Plant response rating, Corn [1, 11]: 30 | Corn plant response rating [1, 12]: 50 | Plant response rating, Corn [1, 13]: 30 | Plant response rating, Corn [1, 14]: 40 | Plant response rating, Kochia [2, 15]: 90 | Plant response rating, Kochia [2, 16]: 90 | Plant response rating, Kochia [2, 17]: 90 | Plant response rating, Kochia [2, 18]: 90 | Plant response rating, Johnsongrass [3, 19]: 20 | Plant response rating, Johnsongrass [3, 20]: 25 | Plant response rating, Johnsongrass [3, 21]: 80 | Plant response rating, Johnsongrass [3, 22]: 98 | Plant response rating, Johnsongrass [3, 23]: 50 | Plant response rating, Johnsongrass [3, 24]: 75 | Plant response rating, Johnsongrass [3, 25]: 95 | Plant response rating, Johnsongrass [3, 26]: 95 | Plant response rating, Ragweed [4, 19]: 85 | Plant response rating, Ragweed [4, 20]: 85 | Plant response rating, Ragweed [4, 21]: 90 | Plant response rating, Ragweed [4, 22]: 90 | Plant response rating, Ragweed [4, 23]: 5 | Plant response rating, Ragweed [4, 24]: 60 | Plant response rating, Ragweed [4, 25]: 75 | Plant response rating, Ragweed [4, 26]: 95 | Plant response rating, Lambsquarters [5, 19]: 85 | Plant response rating, Lambsquarters [5, 20]: 95 | Plant response rating, Lambsquarters [5, 21]: 95 | Plant response rating, Lambsquarters [5, 22]: 98 | Plant response rating, Lambsquarters [5, 23]: 85 | Plant response rating, Lambsquarters [5, 24]: 85 | Plant response rating, Lambsquarters [5, 25]: 98 | Plant response rating, Lambsquarters [5, 26]: 98 | Plant response rating, Rice (0 to 100 scale, 0 is no effect, 100 is complete control) [6]: 60 | Plant response rating, Galium [7, 19]: 80 | Plant response rating, Galium [7, 20]: 90 | Plant response rating, Galium [7, 21]: 90 | Plant response rating, Galium [7, 22]: 90 | Plant response rating, Galium [7, 23]: 98 | Plant response rating, Galium [7, 24]: 100 | Plant response rating, Galium [7, 25]: 100 | Plant response rating, Galium [7, 26]: 100 | Plant response rating, Morningglory [8, 11]: 100 | Morningglory plant response rating [8, 12]: 100 | Plant response rating, Morningglory [8, 13]: 70 | Plant response rating, Morningglory [8, 14]: 90 | Plant response rating, Barnyardgrass [9, 11]: 90 | Barnyardgrass plant response rating [9, 12]: 90 | Plant response rating, Velvetleaf [10, 19]: 75 | Plant response rating, Velvetleaf [10, 20]: 85 | Plant response rating, Velvetleaf [10, 21]: 85 | Plant response rating, Velvetleaf [10, 22]: 90 | Plant response rating, Velvetleaf [10, 23]: 60 | Plant response rating, Velvetleaf [10, 24]: 100 | Plant response rating, Velvetleaf [10, 25]: 100 | Plant response rating, Velvetleaf [10, 26]: 100

CCc1nn(-c2ccc(F)c(F)c2)nc1Oc1ccnc(C(F)(F)F)c1 [Compound 171]
Plant response rating, Corn [1, 11]: 20 | Corn plant response rating [1, 12]: 30 | Plant response rating, Corn [1, 13]: 10 | Plant response rating, Corn [1, 14]: 30 | Plant response rating, Kochia [2, 15]: 90 | Plant response rating, Kochia [2, 16]: 90 | Plant response rating, Kochia [2, 17]: 90 | Plant response rating, Kochia [2, 18]: 90 | Plant response rating, Johnsongrass [3, 19]: 15 | Plant response rating, Johnsongrass [3, 20]: 15 | Plant response rating, Johnsongrass [3, 21]: 25 | Plant response rating, Johnsongrass [3, 22]: 25 | Plant response rating, Johnsongrass [3, 23]: 0 | Plant response rating, Johnsongrass [3, 24]: 25 | Plant response rating, Johnsongrass [3, 25]: 75 | Plant response rating, Johnsongrass [3, 26]: 95 | Plant response rating, Ragweed [4, 19]: 55 | Plant response rating, Ragweed [4, 20]: 55 | Plant response rating, Ragweed [4, 21]: 55 | Plant response rating, Ragweed [4, 22]: 55 | Plant response rating, Ragweed [4, 23]: 0 | Plant response rating, Ragweed [4, 24]: 5 | Plant response rating, Ragweed [4, 25]: 10 | Plant response rating, Ragweed [4, 26]: 15 | Plant response rating, Lambsquarters [5, 19]: 75 | Plant response rating, Lambsquarters [5, 20]: 75 | Plant response rating, Lambsquarters [5, 21]: 95 | Plant response rating, Lambsquarters [5, 22]: 95 | Plant response rating, Lambsquarters [5, 23]: 100 | Plant response rating, Lambsquarters [5, 24]: 100 | Plant response rating, Lambsquarters [5, 26]: 100 | Plant response rating, Rice (0 to 100 scale, 0 is no effect, 100 is complete control) [6]: 60 | Plant response rating, Galium [7, 19]: 70 | Plant response rating, Galium [7, 20]: 75 | Plant response rating, Galium [7, 21]: 80 | Plant response rating, Galium [7, 22]: 80 | Plant response rating, Galium [7, 23]: 5 | Plant response rating, Galium [7, 24]: 98 | Plant response rating, Galium [7, 25]: 98 | Plant response rating, Galium [7, 26]: 100 | Plant response rating, Morningglory [8, 11]: 100 | Morningglory plant response rating [8, 12]: 100 | Plant response rating, Morningglory [8, 13]: 50 | Plant response rating, Morningglory [8, 14]: 60 | Plant response rating, Barnyardgrass [9, 11]: 80 | Barnyardgrass plant response rating [9, 12]: 90 | Plant response rating, Velvetleaf [10, 19]: 25 | Plant response rating, Velvetleaf [10, 20]: 25 | Plant response rating, Velvetleaf [10, 21]: 45 | Plant response rating, Velvetleaf [10, 22]: 75 | Plant response rating, Velvetleaf [10, 23]: 5 | Plant response rating, Velvetleaf [10, 24]: 25 | Plant response rating, Velvetleaf [10, 25]: 55 | Plant response rating, Velvetleaf [10, 26]: 65
